Data from PubChem BioAssay AID248 (DTP/NCI, 2004).
Toxic doses and inconclusive results are not listed. Rule as the data show it: active = T/C of 150% or more; inactive = T/C below 125%.

Tested on: L1210 leukemia ip in BDF1 mice, survival T/C
Experiment: NCI In Vivo Anticancer Drug Screen. Data for tumor model L1210 Leukemia (intraperitoneal) in B6D2F1 (BDF1) mice
Settings: endpoint: mean survival time, higher = longer survival
How it was run: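 Tumor was transplanted into mice, which were then dosed with test compound or vehicle alone. Survival was recorded for each group, and the treated figure was expressed relative to the control figure.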

[1] = dose: 100.0 mg/kg/injection, schedule: Q01DX009 (ip), vehicle: saline with Tween-80
[2] = dose: 200.0 mg/kg/injection, schedule: Q01DX009 (ip), vehicle: saline with Tween-80
[3] = dose: 100.0 mg/kg/injection, schedule: Q01DX001 (ip), vehicle: carboxymethylcellulose (CMC)
[4] = dose: 200.0 mg/kg/injection, schedule: Q01DX001 (ip), vehicle: carboxymethylcellulose (CMC)
[5] = dose: 100.0 mg/kg/injection, schedule: Q04DX002 (ip), vehicle: saline
[6] = dose: 200.0 mg/kg/injection, schedule: Q04DX002 (ip), vehicle: saline
[7] = dose: 400.0 mg/kg/injection, schedule: Q04DX002 (ip), vehicle: saline
[8] = dose: 100.0 mg/kg/injection, schedule: Q01DX001 (ip), vehicle: saline
[9] = dose: 200.0 mg/kg/injection, schedule: Q01DX001 (ip), vehicle: saline
[10] = dose: 400.0 mg/kg/injection, schedule: Q01DX001 (ip), vehicle: saline
[11] = dose: 100.0 mg/kg/injection, schedule: Q01DX009 (ip), vehicle: saline sonified
[12] = dose: 100.0 mg/kg/injection, schedule: Q04DX003 (ip), vehicle: saline
[13] = dose: 200.0 mg/kg/injection, schedule: Q01DX009 (ip), vehicle: saline sonified
[14] = dose: 400.0 mg/kg/injection, schedule: Q01DX009 (ip), vehicle: saline sonified
[15] = dose: 100.0 mg/kg/injection, schedule: Q01DX009 (ip), vehicle: Klucel (hydroxypropylcellulose) (HPC)
[16] = dose: 200.0 mg/kg/injection, schedule: Q01DX009 (ip), vehicle: Klucel (hydroxypropylcellulose) (HPC)
[17] = dose: 400.0 mg/kg/injection, schedule: Q01DX009 (ip), vehicle: Klucel (hydroxypropylcellulose) (HPC)

Measured: T/C

Cc1ccc(C(=O)O)cc1S(=O)(=O)Cl
inactive: dose: 50.0 mg/kg/injection, schedule: Q01DX009 (ip), vehicle: saline with Tween-80 113 % of control | [1] 98 % of control | dose: 100.0 mg/kg/injection, schedule: Q04DX003 (ip), vehicle: saline with Tween-80 102 % of control | [2] 95 % of control | dose: 200.0 mg/kg/injection, schedule: Q04DX003 (ip), vehicle: saline with Tween-80 87 % of control | dose: 400.0 mg/kg/injection, schedule: Q04DX003 (ip), vehicle: saline with Tween-80 92 % of control

COC1C=CC2C3Cc4ccc(O)c5c4C2(CCN3C)C1O5 (stereo not drawn)
inactive: dose: 75.0 mg/kg/injection, schedule: Q01DX001 (ip), vehicle: saline 104 % of control | dose: 150.0 mg/kg/injection, schedule: Q01DX001 (ip), vehicle: saline 103 % of control

O=C1C=C(c2c(O)ccc3ccccc23)c2ccccc2C1=O
inactive: dose: 50.0 mg/kg/injection, schedule: Q01DX001 (ip), vehicle: carboxymethylcellulose (CMC) 96 % of control | [3] 100 % of control | [4] 96 % of control | dose: 400.0 mg/kg/injection, schedule: Q01DX001 (ip), vehicle: carboxymethylcellulose (CMC) 110 % of control

Nc1nc(N)c(C=Nc2ccc(I)cc2)c(Nc2ccc(I)cc2)n1
inactive: dose: 400.0 mg/kg/injection, schedule: Q01DX001 (ip), vehicle: alcohol 86 % of control

CC(=O)OCCN1CCCCC1
inactive: [5] 94 % of control | [6] 94 % of control | [7] 97 % of control

O=C(Nc1ccc(C2=NCCN2)c(O)c1)c1cccc(C(=O)Nc2ccc(C3=NCCN3)c(O)c2)c1
inactive: dose: 10.0 mg/kg/injection, schedule: Q01DX Z (ip), vehicle: carboxymethylcellulose (CMC) 101 % of control | dose: 20.0 mg/kg/injection, schedule: Q01DX Z (ip), vehicle: carboxymethylcellulose (CMC) 109 % of control | dose: 40.0 mg/kg/injection, schedule: Q01DX Z (ip), vehicle: carboxymethylcellulose (CMC) 101 % of control | dose: 80.0 mg/kg/injection, schedule: Q01DX Z (ip), vehicle: carboxymethylcellulose (CMC) 101 % of control

O=C1c2ccccc2C(=O)N1[N+](=O)[O-]
inactive: dose: 50.0 mg/kg/injection, schedule: Q01DX001 (ip), vehicle: saline 101 % of control | [8] 107 % of control | [9] 107 % of control | [10] 103 % of control

Cc1cc(/C=C\c2ccc3ccccc3[n+]2C)c(O)c2ncccc12
inactive: [3] 110 % of control | [4] 93 % of control

CN(C)C(=O)NN
inactive: [1] 104 % of control

CC1CN(C(C)(C)C)C1
inactive: dose: 100.0 mg/kg/injection, schedule: Q04DX003 (ip), vehicle: acetone 95 % of control

CCC1=C(c2ccc(OC)cc2)C(C)Oc2cc(OC(C)=O)ccc21 (stereo not drawn)
inactive: dose: 50.0 mg/kg/injection, schedule: Q01DX001 (sc), vehicle: steriod suspending solution 101 % of control | dose: 100.0 mg/kg/injection, schedule: Q01DX001 (sc), vehicle: steriod suspending solution 101 % of control | dose: 200.0 mg/kg/injection, schedule: Q01DX001 (sc), vehicle: steriod suspending solution 97 % of control | dose: 400.0 mg/kg/injection, schedule: Q01DX001 (sc), vehicle: steriod suspending solution 103 % of control

O=S1(=O)CCOCC1
inactive: [11] 105 % of control | [12] 97 % of control | [13] 97 % of control | dose: 200.0 mg/kg/injection, schedule: Q04DX003 (ip), vehicle: saline 95 % of control | [14] 102 % of control | dose: 400.0 mg/kg/injection, schedule: Q04DX003 (ip), vehicle: saline 105 % of control

N=C(N)CCc1ccccc1
inactive: dose: 75.0 mg/kg/injection, schedule: Q04DX003 (ip), vehicle: saline 99 % of control | dose: 150.0 mg/kg/injection, schedule: Q04DX003 (ip), vehicle: saline 98 % of control

COC(=O)C1=C(C(=O)OC)C2OC1C(COC(C)=O)=C2COC(C)=O
inactive: [12] 93 % of control

CCN(CC)c1ccc(N=C2C=C(C(=O)Nc3ccc(C(=O)O)cc3)C(=O)c3ccccc32)c(C)c1
inactive: [8] 102 % of control | [9] 100 % of control | [10] 102 % of control

COC(=O)C1=CCCCC(N2CCOCC2)=C1C(=O)OC
inactive: [8] 97 % of control | [9] 101 % of control | [10] 103 % of control

CC(=O)c1cccc(NC(=O)c2c(Br)c(Br)c(Br)c(Br)c2C(=O)O)c1
inactive: [15] 97 % of control | [16] 104 % of control | [17] 109 % of control

COC(=O)c1cc(C)c(C(=O)OC)cc1C
inactive: [11] 97 % of control | [13] 91 % of control | [14] 88 % of control

CCCCCCCCCCCCCCCC[As]1c2ccccc2Nc2ccccc21
inactive: dose: 100.0 mg/kg/injection, schedule: Q04DX002 (ip), vehicle: saline with Tween-80 86 % of control | dose: 200.0 mg/kg/injection, schedule: Q04DX002 (ip), vehicle: saline with Tween-80 89 % of control | dose: 400.0 mg/kg/injection, schedule: Q04DX002 (ip), vehicle: saline with Tween-80 86 % of control

Cc1ccc2ccccc2c1NS(=O)(=O)c1ccccc1
inactive: dose: 100.0 mg/kg/injection, schedule: Q01DX001 (ip), vehicle: saline sonified 95 % of control | [1] 90 % of control | dose: 200.0 mg/kg/injection, schedule: Q01DX001 (ip), vehicle: saline sonified 95 % of control | [2] 90 % of control | dose: 400.0 mg/kg/injection, schedule: Q01DX001 (ip), vehicle: saline sonified 97 % of control | dose: 400.0 mg/kg/injection, schedule: Q01DX009 (ip), vehicle: saline with Tween-80 88 % of control

C/C(=N/N=C(N)N)c1cccc(O)c1
inactive: dose: 15.0 mg/kg/injection, schedule: Q01DX Z (ip), vehicle: methylcellulose (MC) 107 % of control | dose: 30.0 mg/kg/injection, schedule: Q01DX Z (ip), vehicle: methylcellulose (MC) 110 % of control | dose: 30.0 mg/kg/injection, schedule: Q01DX Z (oral), vehicle: methylcellulose (MC) 89 % of control | dose: 60.0 mg/kg/injection, schedule: Q01DX Z (ip), vehicle: methylcellulose (MC) 97 % of control

CNS(=O)(=O)c1ccc(NC(=O)C(Cl)(Cl)Cl)cc1
inactive: dose: 100.0 mg/kg/injection, schedule: Q01DX001 (ip), vehicle: other 105 % of control | [15] 102 % of control | dose: 100.0 mg/kg/injection, schedule: Q04DX003 (ip), vehicle: other 101 % of control | dose: 200.0 mg/kg/injection, schedule: Q01DX001 (ip), vehicle: other 104 % of control | [16] 95 % of control | dose: 200.0 mg/kg/injection, schedule: Q04DX003 (ip), vehicle: other 101 % of control | dose: 400.0 mg/kg/injection, schedule: Q01DX001 (ip), vehicle: other 104 % of control | [17] 96 % of control | dose: 400.0 mg/kg/injection, schedule: Q04DX003 (ip), vehicle: other 98 % of control

CC1C(O)C(O)C(C(=O)O)ON1C(=O)c1ccccc1 (stereo not drawn)
inactive: [5] 100 % of control | [6] 100 % of control | [7] 110 % of control
